Test results as given in US20240262917A1, “ANTIBODIES AGAINST ALK AND METHODS OF USE THEREOF” (Dana-Farber Cancer Institute, Inc., priority 2021, published 2024).

How the values were obtained:
ALK ECD cleavage = assay: WB analysis of ALK ECD cleavage in cells treated with MMP inhibitors; assay type: cell-based; details: for ALK ECD cleavage / shed fragment: 2 μM×12 hr.; for levels of the shed ALK ECD fragment in media from treated cells: indicated doses
Description: (§1) (A) WB analysis of ALK expression in lysates and CM of NGP cells treated with the broad-spectrum protease inhibitor GM6001 and the MMP-9/13 inhibitor CAS 204140-01-2, at the indicated doses, for 12 hr. Untreated (U) or DMSO-treated cells were used as controls. The 8G7 N-terminal anti-ALK antibody was used to detect the shed fragment in CM and a C-terminal anti-ALK antibody used for the cell lysates in this and subsequent panels. β-actin is used as a loading control throughout this figure. (B) WB analysis of ALK expression in NGP cells treated with the MMP-9 (CTK8G1150) and MMP-3/12/13 (MMP408) inhibitors (2 μM×12 hr.). (C) WB analysis of ALK expression in the indicated NB cell lines treated with or without CTK8G1150 (2 μM for 12 hr.). (D) WB analysis of MMP-9 and ALK expression in NGP and BE (2)-C NB cells expressing either a control shRNA (shGFP) or two different shRNAs against MMP-9. (E) Crystal violet-stained images of NGP and IMR-5 NB cells treated with CTK8G1150 ([…]) or DMSO for 16 hr. and then subjected to transwell migration assays for 48 hr. (left). Scale bar, 100 μm. Quantification of migration (right) reported as means±SD; ** p<0.01, n=4. See also, FIG. 14.
(A) Immunoblot analyses of ALK expression in NGP cells after shRNA depletion of ADAM17 or ADAM10. Five separate shRNAs for ADAM17 and two shRNAs for ADAM10 were used. GADPH or β-actin were included as internal loading controls in this and subsequent panels. (B) Schematic illustration of the protease predicted to cleave ALK at the identified ECD cleavage site (Asn654-Leu655) generated using PROSPER and CleavPredict software. FIG. 14B discloses SEQ ID NO: 73. (C) WB analysis of ALK expression in the indicated lysates or conditioned media from cells engineered to express WT ALK and treated with or without the MMP-9 inhibitor, CTK8G1150 (2 μM for 12 hr.). Untreated cells or cells treated with DMSO were used as controls. The 8G7 N-terminal anti-ALK antibody was used to detect the shed fragment in conditioned medium (CM) and a C-terminal anti-ALK antibody was used for the cell lysates in this and subsequent panels. (D) WB analysis of ALK expression in NGP cells treated with the indicated concentrations of CTK8G1150 for 12 hr. (E) WB analysis of ALK expression in NGP cells treated with CTK8G1150 (2 μM) for the indicated time periods. (F) WB analysis of ALK following incubation of recombinant MMP-9 to ALK protein purified from 293T cells engineered to express WT or ALK LF655del.
Most receptor tyrosine kinases (RTKs) undergo ECD cleavage by proteases known as sheddases, that include matrix metalloproteinases (MMPs) and A disintegrin and metalloproteinases (ADAMs) (Kreitman et al., 2018). These zinc-dependent, membrane-associated or secreted proteases cleave cell surface transmembrane proteins that play a primary role in the degradation of extracellular matrix proteins, thus affecting multiple biological functions, such as cell signaling, growth factor activation and cytokine release. […] We next determined whether ALK could be cleaved by MMP-9 in vitro (FIG. 14, panel F). […] Finally, to confirm the role of MMP-9 in ALK cleavage, we genetically depleted this protease through shRNA knockdown in two NB cell lines [NGP and BE(2)-C], observing a significant decrease in the 140 kDa product resulting from inhibition of cleavage (FIG. 7, panel D). Depletion of MMP-2, by contrast, led to only a slight decrease in cleavage.
Cell lysates were prepared in NP-40 buffer (Invitrogen) containing complete protease inhibitor (Roche), phosphatase inhibitor (Roche) and phenylmethylsulfonyl fluoride (PMSF). Lysates were incubated on ice for 20 min and centrifuged at 16,000 g for 15 min at 4° C. Protein concentrations of the supernatants were determined with the DC protein assay kit (Bio-Rad). Protein samples were denatured using NuPAGE LDS sample buffer (Invitrogen) and NuPAGE sample reducing agent (Invitrogen). […]

ALK-positive NSCLC = details: cited from earlier work
NGP and IMR-5 NB cells = assay: Transwell migration assay after MMP-9 inhibitor treatment; assay type: cell-based, human; details: CTK8G1150 (2 µM) 16 hr., transwell migration 48 hr.
Description: as §1
Cell migration was measured using transwell chambers (Falcon; cell culture inserts with 8 μm pores) and a 24-well plate as the lower chamber. […]

neuroblastoma = details: human, in vivo; cited from earlier work

COC(=O)Nc1ccc2oc3cc(S(=O)(=O)N[C@@H](C(=O)O)C(C)C)ccc3c2c1 [MMP408]
ALK ECD cleavage / shed fragment (ALK ECD cleavage; NGP cells): did not affect cleavage

Cc1cc(Nc2ncc(Cl)c(Nc3ccccc3S(=O)(=O)C(C)C)n2)c(OC(C)C)cc1C1CCNCC1 [ceritinib]
median duration of response (ALK-positive NSCLC): 16.6 months

CNC(=O)[C@H](Cc1c[nH]c2ccccc12)NC(=O)[C@@H](CC(=O)NO)CC(C)C [GM6001]
levels of the shed ALK ECD fragment in media from treated cells (ALK ECD cleavage; NGP cells, 12 hr.): caused a decrease in the levels of the shed ALK ECD fragment

CCN(CC)Cc1cc(C)c(N(Cc2ccccc2)S(=O)(=O)c2ccc(OC)cc2)c(C(=O)NO)c1 [CTK8G1150]
inhibition of ECD cleavage in cells engineered to overexpress WT ALK (ALK ECD cleavage; 293T and NIH3T3 cells, 2 μM for 12 hr.): significant inhibition of ECD cleavage | ECD cleavage in endogenous WT ALK-expressing NB cell lines (ALK ECD cleavage; NGP NB cells and four additional NB cell lines, 2 μM for 12 hr.): inhibited ECD cleavage | period over which ALK ECD cleavage disruption was maintained (ALK ECD cleavage; NGP cells, 2 μM): > 52 h | ALK ECD cleavage / shed fragment (ALK ECD cleavage; NGP cells): produced a marked decrease in the shed fragment | dose dependence of ALK ECD cleavage disruption (ALK ECD cleavage; NGP cells, indicated concentrations, 12 hr.): disrupted in a dose-dependent manner | migration of NB cells that endogenously expressed WT ALK (NGP and IMR-5 NB cells): significantly suppressed the migration

C[C@@H](Oc1cc(-c2cnn(C3CCNCC3)c2)cnc1N)c1c(Cl)ccc(F)c1Cl [crizotinib]
durability of responses in neuroblastoma patients (neuroblastoma): has not shown durable responses

COc1ccc(S(=O)(=O)N2CCN(C(=O)c3ccc(-c4ccccc4)cc3)CC2C(=O)NO)cc1 (centres unmarked) [CAS 204140-01-2]
levels of the shed ALK ECD fragment in media from treated cells (ALK ECD cleavage; NGP cells, 12 hr.): caused a decrease in the levels of the shed ALK ECD fragment
